Assay results published in patent publication US12642270B2, “Substituted thiophene carboxamides, thiophene carboxylic acids and derivatives thereof” (Bayer Aktiengesellschaft, priority 2019, dated 2026).

Experiments:
[1] = system: Colletotrichum lindemuthianum; assay: Example O: Colletotrichum lindemuthianum in vitro cell test, formula (II); assay type: cell-based; conditions: 144 h, 6 days incubation, read-out: efficacy (inhibition of fungal growth; no direct activity); for inhibition at 10 ppm: 10 ppm of active ingredient; for inhibition at 20 ppm: 20 ppm of active ingredient
Description: • Solvent: DMSO • Culture medium: 14.6 g anhydrous D-glucose (VWR), 7.1 g Mycological Peptone (Oxoid), 1.4 g granulated Yeast Extract (Merck), QSP 1 liter • Inoculum: spores suspension Fungicides were solubilized in DMSO and the solution used to prepare the required range of concentrations. The final concentration of DMSO used in the assay was: ≤[…]1%. A spore suspension of C. lindemuthianum was prepared and diluted to the desired spore density. Fungicides were evaluated for their ability to inhibit spores germination and mycelium growth in liquid culture assay. The compounds were added in the desired concentration to the culture medium with spores. After 6 days incubation, fungi-toxicity of compounds was determined by spectrometric measurement of mycelium growth. Inhibition of fungal growth was determined by comparing the absorbance values in wells containing the fungicides with the absorbance in control wells without fungicides.

[2] = system: Xanthomonas campestris pv. campestris; assay: Example P: Xanthomonas campestris pv. campestris in vitro cell test, formula (II); assay type: cell-based; conditions: 20 ppm of active ingredient, 24 h incubation, read-out: efficacy (inhibition of bacteria growth; no direct activity)
Description: • Solvent: DMSO • Culture medium: LB broth medium (Luria Broth Miller) Sigma • Inoculum: bacteria suspension
Compounds were solubilized in DMSO and the solution used to prepare the required range of concentrations. The final concentration of DMSO used in the assay was ≤1%.
Inoculum was prepared from a pre-culture of bacteria grown in liquid medium and diluted to the desired optical density (OD).
Compounds were evaluated for their ability to inhibit bacteria growth in liquid culture assay. The compounds were added in the desired concentrations to culture medium containing the bacteria suspension. After 24 h of incubation, the efficacy of compounds was determined by spectrometric measurement of bacteria growth. Inhibition was determined by comparing the absorbance values in wells containing the compounds with the absorbance in control wells without active ingredients.

[3] = Log P by HPLC on reversed phase columns (EEC directive 79/831 Annex V.A8); assay type: physicochemical; conditions: for chromatographic logP: reversed phase HPLC columns
In short: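 Values come from retention times calibrated against alkan-2-ones (3–16 carbons) by linear interpolation, using reversed-phase LC-UV per EEC directive 79/831 Annex V.A8. Acetonitrile gradient 10–95% with 0.1% formic acid [a], 0.001 M ammonium acetate [b] or 0.1% phosphoric acid [c]; several values within one method separated by "+".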

[4] = system: salicylate responsive promoter sequence of the PR1 (pathogenesis-related protein I) gene (AT2G14610); assay: Example A: induction of defense gene expression in Arabidopsis thaliana (PR1 promoter-GFP reporter plants), formula (I); assay type: in vivo; conditions: 300 ppm, 3rd day after spraying, mock treated leaves = 1.00
Description: (§1) Arabidopsis thaliana reporter plants containing the coding sequence of a green fluorescent protein (GFP) linked to the salicylate responsive promoter sequence of the PR1 (pathogenesis-related protein I) gene (AT2G14610) were grown for five days and then sprayed with compounds. On the 3rd day after spraying, plant fluorescence was assessed with a MacroFluo instrument from Leica Microsystems (Wetzlar, Germany). Fluorescences were quantified with the Meta-Morph Microscopy Automation & Image Analysis Software (Molecular Devices, Sunnyvale, Calif., United States).
(§2) Background fluorescence in mock treated leaves was set as 1.00.

[5] = system: salicylate responsive promoter sequence of the PR1 (pathogenesis-related protein I) gene (AT2G14610); assay: Example K: induction of defense gene expression in Arabidopsis thaliana (PR1 promoter-GFP reporter plants), formula (II); assay type: in vivo; conditions: 300 ppm, 3rd day after spraying, mock treated leaves = 1.00
Description: as §1, §2

[6] = method [a]: LC-UV, acidic range, 0.1% formic acid in water and acetonitrile
[7] = value in preparation example, method not marked

Compound	LogP [3, 6]	also measured
COC(=O)c1sc(Cl)c(C#N)c1C [II.028, methyl 5-chloro-4-cyano-3-methylthiophene-2-carboxylate]	–	inhibition at 10 ppm [1]: ≤ 30%; inhibition at 20 ppm [1]: ≤ 30%; inhibition at 20 ppm [2]: ≤ 30%; chromatographic logP [3, 6]: 2.98; chromatographic logP [3, 7]: 3.01
Cc1c(C(=O)O)sc(C#N)c1Br [II.042, 4-bromo-5-cyano-3-methylthiophene-2-carboxylic acid]	–	inhibition at 10 ppm [1]: ≤ 30%; inhibition at 20 ppm [1]: ≤ 30%; inhibition at 20 ppm [2]: ≤ 30%; chromatographic logP [3, 6]: 2.01
COC(=O)c1cc(C#N)c(Cl)s1 [II.045]	2.44^[a]	–
COC(=O)c1cc(Cl)c(C#N)s1 [II.046, methyl 4-chloro-5-cyanothiophene-2-carboxylate]	–	inhibition at 10 ppm [1]: ≤ 30%; inhibition at 20 ppm [1]: ≤ 30%; inhibition at 20 ppm [2]: ≤ 30%; chromatographic logP [3, 6]: 2.52; chromatographic logP [3, 7]: 2.52
COC(=O)c1cc(Cl)c(Br)s1 [II.047]	3.29^[a]	–
CCOC(=O)c1cc(Br)c(Cl)s1 [II.048]	4.21^[a]	–
COC(=O)c1cc(F)c(Br)s1 [II.049]	3.04^[a]	–
CC(C)COC(=O)c1cc(Cl)c(Br)s1 [II.050]	5.28^[a]	–
COC(=O)c1sc(C#N)c(Br)c1C [II.051]	3.19^[a]	–
COC(=O)c1cc(Br)c(C#N)s1 [II.052]	2.63^[a]	–
CCOC(=O)c1sc(Cl)c(Cl)c1C#N [II.053, ethyl 4,5-dichloro-3-cyanothiophene-2-carboxylate]	–	chromatographic logP [3, 6]: 3.54; chromatographic logP [3, 7]: 3.54
COC(=O)c1sc(C#N)c(Br)c1Br [II.054]	3.07^[a]	–
COC(=O)c1sc(Br)c(Br)c1C(F)F [II.055, methyl 4,5-dibromo-3-(difluoromethyl)thiophene-2-carboxylate]	–	chromatographic logP [3, 6]: 3.81; chromatographic logP [3, 7]: 3.81
CCOC(=O)c1sc(I)c(Cl)c1Cl [II.056]	4.57^[a]	–
O=C(O)c1sc(I)c(Cl)c1Cl [II.057]	3.01^[a]	–
COC(=O)c1sc(C)c(Cl)c1Cl [II.058]	3.49^[a]	–
COC(=O)c1sc(F)c(Br)c1Cl [II.059]	3.44^[a]	–
CC(C)COC(=O)c1sc(Cl)c(Br)c1F [II.060]	5.28^[a]	–
N#Cc1sc(C(=O)O)c(Br)c1Br [II.061]	1.66^[a]	–
CCOC(=O)c1cc(Cl)c(F)s1 [II.062]	3.63^[a]	–
CCOC(=O)c1sc(C)c(Cl)c1Cl [II.063]	4.03^[a]	–

Compound	LogP [3, 6]	also measured
O=C(O)c1cc(Cl)c(F)s1 [II.064]	2.16^[a]	–
Cc1sc(C(=O)O)c(Cl)c1Cl [II.065]	2.49^[a]	–
CCOC(=O)c1sc(F)c(Br)c1Cl [II.066]	4.02^[a]	–
CCOC(=O)c1sc(Cl)c(Br)c1F [II.067]	4.08^[a]	–
CCOC(=O)c1sc(C#N)c(Cl)c1Cl [II.068]	3.50^[a]	–
COC(=O)c1sc(Br)c(Br)c1C#N [II.069]	3.26^[a]	–
O=C(O)c1sc(Br)c(Cl)c1Br [II.070]	2.41^[a]	–
COC(=O)c1sc(Br)c(Cl)c1Br [II.071]	4.01^[a]	–
CCOC(=O)c1cc(Cl)c(C#N)s1 [II.072]	3.10^[a]	–
CCOC(=O)c1sc(Cl)c(C)c1Cl [II.073]	4.59^[a]	–
Cc1c(Cl)sc(C(=O)O)c1Cl [II.074]	2.76^[a]	–
COC(=O)c1sc(Br)c(C(F)F)c1Br [II.075]	3.54^[a]	–
O=C(O)c1sc(F)c(Br)c1Cl [II.076]	2.19^[a]	–
COC(=O)c1sc(Cl)c(Br)c1C#N [II.077]	2.99^[a]	–
O=C(O)c1sc(Br)c(C(F)F)c1Br [II.078]	2.26^[a]	–
COC(=O)c1sc(C#N)c(Cl)c1Cl [II.079]	2.99^[a]	–
COC(=O)c1sc(C#N)c(Br)c1Cl [II.080]	3.02^[a]	–
O=C(O)c1cc(Br)c(C(F)(F)F)s1 [II.081]	2.46^[a]	–
CCOC(=O)c1cc(Br)c(C(F)(F)F)s1 [II.082]	4.40^[a]	–
N#Cc1c(C(=O)O)sc(Cl)c1Br [II.083]	1.70^[a]	–
COC(=O)c1sc(C)c(Br)c1F [II.084]	3.15^[a]	–

Compound	LogP [3, 6]	also measured
COC(=O)c1sc(Cl)c(Cl)c1C#N [II.085, methyl 4,5-dichloro-3-cyanothiophene-2-carboxylate]	–	inhibition at 10 ppm [1]: ≤ 30%; inhibition at 20 ppm [1]: ≤ 30%; inhibition at 20 ppm [2]: ≤ 30%; chromatographic logP [3, 6]: 2.98; chromatographic logP [3, 7]: 2.98
COC(=O)c1sc(F)c(Br)c1Br [II.086]	3.56^[a]	–
N#Cc1sc(C(=O)O)c(Cl)c1Br [II.087]	1.55^[a]	–
N#Cc1sc(C(=O)O)c(Cl)c1Cl [II.088]	1.51^[a]	–
CCOC(=O)c1sc(Cl)c(Br)c1Cl [II.089]	4.62^[a]	–
CCOC(=O)c1cc(C#N)c(Cl)s1 [II.090]	3.01^[a]	–
CCOC(=O)c1sc(Br)c(C#N)c1Cl [II.091]	3.44^[a]	–
CCOC(=O)c1sc(C#N)c(Cl)c1Br [II.092]	3.56^[a]	–
CCOC(=O)c1sc(Cl)c(C#N)c1Br [II.093]	3.46^[a]	–
O=C(O)c1sc(F)c(Br)c1Br [II.094]	2.26^[a]	–
COC(=O)c1sc(Cl)c(C#N)c1Br [II.095]	2.92^[a]	–
COC(=O)c1sc(C#N)c(Cl)c1Br [II.096]	3.04^[a]	–
N#Cc1sc(C(=O)O)c(Br)c1Cl [II.097]	1.64^[a]	–
N#Cc1c(Cl)sc(C(=O)O)c1Br [II.098]	1.68^[a]	–
O=C(O)c1sc(C(F)F)c(Br)c1Br [II.099]	2.51^[a]	–
N#Cc1cc(C(=O)O)sc1Br [II.100]	1.48^[a]	–
Cc1c(C(=O)O)sc(F)c1Cl [II.101]	2.45^[a]	–
Cc1c(C(=O)O)sc(F)c1Br [II.102]	2.53^[a]	–
N#Cc1c(C(=O)O)sc(Cl)c1Cl [II.103, 4,5-dichloro-3-cyanothiophene-2-carboxylic acid]	–	chromatographic logP [3, 6]: 1.61; chromatographic logP [3, 7]: 1.61
N#Cc1c(C(=O)O)sc(Br)c1Br [II.104]	1.71^[a]	–
O=C(O)c1ccccc1O [Salicylic acid]	–	relative fluorescence value [4]: 2.70; relative fluorescence value [5]: 2.70
